According to patent US7329485B2, “Methods for detecting compounds that interfere with protein aggregation utilizing an in vitro fluorescence-based assay” (priority 2005, dated 2008):
Entries after “also recorded” stand apart in the source; their conditions may differ.

Columns and labels:
HBV capsid (C150BO) [1] = biological target: T1, HBV capsid (C150BO) (Hepatitis B virus genotype D subtype adw, UniProt P03147, C107A/C48A/C61A); assay: BODIPY-FL fluorescence quenching assay of C150BO capsid assembly, compared to size-exclusion chromatography; format: biochemical, HBV strain adyw; conditions: for effect on C150BO assembly (fluorescence, size-exclusion chromatography): 3 μM C150BO, 21° C.; for effect on assembly and quenching in mock assembly reactions: mock-assembled, low salt / no NaCl, time not stated; for effect on fluorescence of mock-assembled C150BO dimer (intrinsic quenching control): early times (up to 2 h)
T1 construct: For fluorescent labeling, the mutant C150 (Zlotnick et al., 1997); made in house; host or cells: E. coli
Method: Mutagenesis: For simplicity of chemical labeling, the cysteine residues (C48, C61 and C107) in the assembly domain of HBV strain adyw core protein (amino acids 1-149 (Zlotnick et al., 1996), core protein 149) were mutated to alanine, inserting a unique cysteine residue at the C terminus (C150). Mutagenesis was performed using QuikChange Multi (Stratagene). Mutagenic primers are described in Table III (IDT DNA technologies). Mutations were confirmed by dye terminator dideoxy sequencing (DNA Sequencing Core, Oklahoma Medical Research Foundation). The resulting mutant protein is referred to herein as C150.
Protein expression, purification and dye labeling: Wild-type and mutant truncated HBV capsid protein dimers were expressed and purified from E. coli as described in Zlotnick et al., 1996 and Zlotnick et al., 2002. Protein was quantified by absorbance at 280 nm (ε=60,900 M^−1 cm^−1). DTT levels were maintained at 5 mM throughout purification and storage. Immediately before derivatization, C150 protein was removed from storage buffer by chromatography over a G25 PD10 desalting column (Amersham Biosciences) equilibrated with ice-cold 50 mM HEPES pH 7.5 without DTT. Peak fractions were reacted with BODIPY-FL maleimide (Invitrogen/Molecular Probes) on ice at a final concentration of 4 mM from a 20 mM BODIPY-FL stock in DMSO. Most complete labeling was achieved by overnight reaction, although significant labeling could be achieved by reaction for as little as 10 min. Unreacted dye was removed by separation over a G25 PD10 desalting column equilibrated in ice-cold 50 mM HEPES, pH 7.5. The degree of dye labeling was determined using absorbance at 504 nm (ε504=73,000 M^−1 cm^−1, ε280=1,300 M^−1 cm^−1). The extinction coefficient was calculated by determining the degree of labeling of BODIPY-FL-labeled C150 preps by MALDI-TOF mass spectrometry. Yield of BODIPY-FL-labeled C150 was typically on the order of 1.9 moles of dye per mole of dimer. Labeling of C150 with fluorescein maleimide was compared to BODIPY-FL; BODIPY-FL conjugates gave a much stronger assembly-dependent change in fluorescence than did fluorescein.
Fluorescence and light scattering: Assembly was monitored by fluorescence using a SPEX Fluoromax-2 fluorometer (Horiba Jobin Yvon), using a 0.3-cm path-length cuvette (Hellma) or in black 96-well COSTAR fluorescence microtiter plates (Corning) using a MicroMax adaptor. Assembly reactions were performed at 21° C. Assembly was initiated manually by mixing core protein in 50 mM HEPES, pH 7.5, with buffered NaCl (Sigma) as appropriate. Fluorescence was excited at 504 nm and emission was measured at 509 nm (1-nm band pass for each). For static measurements, all measurements were recorded in triplicate. Qualitatively similar results were obtained using excitation at 495 nm and emission at 512 nm (commonly used for fluorescein fluorescence). Measuring fluorescence of the same reactions in either a cuvette or a 96-well fluorescence microtiter plate gave identical quenching values.
Size-exclusion chromatography: Assembly reactions were examined by SEC on a Superose 6 10/30 column (Amersham Biosciences) mounted on a Shimadzu high-performance liquid chromatography system equipped with an auto injection module (Shimadzu). The column was equilibrated with 50 mM HEPES, pH 7.5, 50 mM NaCl. Recovered protein was assigned either to the void (6.5-7.0 ml), capsid (7.0-8.3 ml), dimer (15-16.5 ml) or intermediate elution (8.3-15 ml).

HBV core protein = HBV core protein (Hepatitis B virus genotype D subtype adw, UniProt P03147); set-up: concentration leading to formation of aberrant particles: unit not given here; conditions: Stray et al., 2005, cited from earlier work
HBV capsid (C150BO) [2] = biological target: T1, HBV capsid (C150BO); assay: Example 2 in vitro assembly reactions with labeled capsid polypeptide C150BO, plate reader; format: biochemical; conditions: % assembly at 1 hour (FIG. 7); conditions induced 25% (±5%) assembly in the absence of drugs
Method: The assays were carried out as described in Example 1, except as described herein after. Samples were read in 3 minute intervals for one hour and again at 24 hours using a Tecan filter-based plate reader with a standard fluorescein filter set.
FIG. 7 illustrates a typical experiment comparing different compounds, including some heteroaryldihydropyrimidine (HAP) derivatives. In this experiment, assembly conditions induced 25% (±5%) assembly in the absence of drugs.

T1 sequence (P03147 1-150, looked up, stated change not applied): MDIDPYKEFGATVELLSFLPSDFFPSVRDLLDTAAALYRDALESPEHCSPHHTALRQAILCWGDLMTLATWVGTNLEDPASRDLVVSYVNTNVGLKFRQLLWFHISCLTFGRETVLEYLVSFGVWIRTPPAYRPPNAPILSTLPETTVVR
Chain of HBV core protein (P03147 1-149): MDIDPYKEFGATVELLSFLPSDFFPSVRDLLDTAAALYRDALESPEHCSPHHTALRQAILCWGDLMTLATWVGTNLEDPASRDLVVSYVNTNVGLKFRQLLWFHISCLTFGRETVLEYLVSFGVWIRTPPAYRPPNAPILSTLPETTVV

SMILES | effect on C150BO assembly (fluorescence, size-exclusion chromatography) (HBV capsid (C150BO) [1]; 150 mM NaCl, 24 h (FIG. 6a)) | effect on assembly and quenching in mock assembly reactions (HBV capsid (C150BO) [1]) | quenching and assembly in mock-assembled controls (HBV capsid (C150BO) [1]; without NaCl, after 24 h) | effect on fluorescence of mock-assembled C150BO dimer (intrinsic quenching control) (HBV capsid (C150BO) [1]; without NaCl) | concentration leading to formation of aberrant particles (HBV core protein; >1 HAP-1 molecule per dimer) | effect on HBV core protein assembly in vitro (HBV core protein; broad range of concentrations) | effect on C150BO assembly (fluorescence, size-exclusion chromatography) (HBV capsid (C150BO) [1]; 0.5 M NaCl, 24 h (FIG. 6b)) | effect on % assembly of HBV capsid by fluorescence (HBV capsid (C150BO) [2])
COC(=O)C1=C(C)NC(c2ccccn2)=NC1c1ccc(F)cc1Cl (stereo not shown) [HAP-1] | enhanced assembly, leading to enhanced quenching; also recorded: substantially increased both the rate and the extent of C150BO assembly | able to induce slow C150BO assembly | showed both BODIPY-FL quenching and assembly by SEC | No reduction in fluorescence; also recorded: no effect on fluorescence | ≥ 10 | enhanced the rate and extent of HBV core protein assembly | – | –
NC(N)=O [urea] | – | affected neither assembly nor quenching | – | No reduction in fluorescence | – | – | inhibited assembly; also recorded: A decrease in assembly by SEC and an increase in fluorescence | only showed marginal assembly inhibition
